Assay results published in patent publication US8367662B2, “Organic compounds” (Novartis AG, priority 2007, dated 2013).
Each block holds one molecule with its values, some of them ahead of it.

Key:
[1] = biological target: T1, human ALK5 (ALK5 T204D kinase domain) (Homo sapiens, UniProt P36897, T204D); experiment: ALK5 kinase assay: [33P] phosphate incorporation into casein; assay type: biochemical; conditions: casein substrate, 1 μM unlabelled ATP
T1 construct: The kinase domain of human ALK5 (amino acids 200-503); made in house; host or cells: insect cells (baculovirus)
T1 sequence (P36897 200-503 T204D): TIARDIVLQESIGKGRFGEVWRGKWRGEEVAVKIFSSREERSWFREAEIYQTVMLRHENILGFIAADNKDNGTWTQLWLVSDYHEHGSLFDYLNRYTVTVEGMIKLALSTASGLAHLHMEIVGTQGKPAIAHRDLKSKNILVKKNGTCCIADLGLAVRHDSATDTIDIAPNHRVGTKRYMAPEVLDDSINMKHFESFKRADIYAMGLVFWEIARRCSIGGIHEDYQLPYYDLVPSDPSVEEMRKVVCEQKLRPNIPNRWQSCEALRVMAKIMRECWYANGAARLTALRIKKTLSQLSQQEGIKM
Protocol: The kinase activity of ALK5 is assessed by measuring radiolabelled phosphate [33P] incorporation in to the generic substrate, casein. The kinase domain of human ALK5 (amino acids 200-503) is fused to an N-terminal histidine tag. The kinase activity of ALK5 is rendered constitutive via point mutation at amino acid 204 (threonine to aspartate modification, ALK5 T204D) and the kinase construct is engineered to be expressed from a baculovirus expression construct in insect cells. The purified, recombinantly-expressed histidine-tagged ALK5 T204D protein is dissolved at 5.4 mg/ml in 50 mM Tris-HCl pH 8.0, 150 mM NaCl, 5 mM DTT. ALK5 T204D is dissolved to 2.5 μg/ml in assay buffer (Assay buffer: 20 mM Tris-HCl pH 7.4, 10 mM MgCl2, 2 mM MnCl2) on the day of use.
Test compounds and reference compounds are dissolved in assay buffer without DTT containing 5% (v/v) DMSO. Stock solutions of test and reference compounds are diluted in assay buffer with DTT (1.25 mM) containing 4.5% (v/v) DMSO. 10 μl of test or reference compound are added to the appropriate wells of 96 well U-bottomed plate. Total enzyme activity is determined by measuring ALK5 T204D activity in the absence of ALK5 kinase inhibitor reference compounds. Non-specific binding (NSB) is determined by measuring the activity of ALK5 T204D in the presence of ALK5 kinase inhibitor reference compounds. 10 μl of dephosphorylated casein stock solution (dephosphorylated casein is dissolved in ddH2O at 20 mg/ml) is added per well (200 μg/well final assay concentration). 20 μl of ALK5 T204D (2.5 μg/ml solution) is added per well (50 ng/well final assay concentration). The plates are left to incubate at room temperature for 10 minutes.
10 μl of ATP mix is added to the well to initiate the reaction (0.66 nM [^33P]ATP/1 μM unlabelled ATP/well final assay concentration). The ATP mix is prepared as follows, unlabelled ATP (3 mM) is dissolved in ddH2O and pH adjusted to 7.4. The stock concentration of [^33P]ATP is 10 μCi/μl. The appropriate volume of [^33P]ATP is added to unlabelled ATP solution such that the final assay concentration per well is 0.1 μCi. Following addition of the ATP mix, the plates are incubated at room temperature for 50 minutes. The kinase reaction is terminated by the addition of 50 μL Stop Buffer (20 mM Tris-HCl pH 7.4, 10 mM EDTA).
75 μ/well from the reaction plate is transferred to a Multiscreen-IP plate (MultiScreen-IP plates are prepared by added 50 μL of 70% (v/v) ethanol per well and incubated for 5 minutes at room temperature. The ethanol is removed by aspiration via a MultiScreen HTS Vaccum Manifold unit (Millipore, Cat no: MSVMHT500). The plates are washed twice by adding 200 μl/well ddH2O). The MultiScreen-IP plate is incubated at room temperature for 30 minutes to allowing binding of casein to the plate. The MultiScreen-IP plates are washed three times by adding 200 μl/well 100 mM phosphoric acid solution and the gasket is carefully removed from the back of the MultiScreen-IP plate and the plate dried in the oven for 30 minutes. The MultiScreen-IP plate is backsealed, 50 μL of Microscint®20 is added, then the plates are topsealed and radiolabelled casein detected and quantified on a TopCount™ plate-reader using the ^33P scintillation protocol.

[2] = test system: dimethylnitrosamine induced liver fibrosis; conditions: rat, cited from earlier work
bleomycin-treated rats = conditions: cited from earlier work
[3] = given therapeutically, dimethylnitrosamine induced liver fibrosis

Molecule: c1cncc(-c2ccn3c(-c4cccc(-n5cccn5)c4)cnc3c2)c1 [Example 1.1, 3-(3-Pyrazol-1-yl-phenyl)-7-pyridin-3-yl-imidazo[1,2-a]pyridine]
IC50 [1]: 4 nM

Molecule: c1ccc(-c2cc(-c3cnc4cc(-c5ccc(N6CCOCC6)nc5)ccn34)ccn2)cc1 [Example 1.5, 7-(6-Morpholin-4-yl-pyridin-3-yl)-3-(2-phenyl-pyridin-4-yl)-imidazo[1,2-a]pyridine]
IC50 [1]: 8 nM

Molecule: O=Cc1cccc(-c2ccn3c(-c4cccc(-n5cccn5)c4)cnc3c2)c1 [Example 1.9, 3-[3-(3-Pyrazol-1-yl-phenyl)-imidazo[1,2-a]pyridin-7-yl]-benzaldehyde]
IC50 [1]: 86 nM

Molecule: CNC(=O)c1cccc(-c2ccn3c(-c4ccnc(-c5cccc(F)c5)c4)cnc3c2)c1 [Example 1.13, 3-{3-[2-(3-Fluoro-phenyl)-pyridin-4-yl]-imidazo[1,2-a]pyridin-7-yl}-N-methyl-benzamide]
IC50 [1]: 55 nM

Molecule: Fc1cccc(-c2cc(-c3cnc4cc(-c5cccnc5)ccn34)ccn2)c1 [Example 1.17, 3-[2-(3-Fluoro-phenyl)-pyridin-4-yl]-7-pyridin-3-yl-imidazo[1,2-a]pyridine]
IC50 [1]: 76 nM

Molecule: CNC(=O)c1cccc(-c2ccn3c(-c4ccnc(-n5ccc(C)n5)c4)cnc3c2)c1 [Example 1.23, N-Methyl-3-{3-[2-(3-methyl-pyrazol-1-yl)-pyridin-4-yl]-imidazo[1,2-a]pyridin-7-yl}-benzamide]
IC50 [1]: 77 nM

Molecule: Fc1ccccc1-c1cc(-c2cnc3cc(-c4cccnc4)ccn23)ccn1 [Example 1.30, 3-[2-(2-Fluoro-phenyl)-pyridin-4-yl]-7-pyridin-3-yl-imidazo[1,2-a]pyridine]
IC50 [1]: 47 nM

Molecule: O=Cc1cccc(-c2ccn3c(-c4ccnc(N5CCCC5)c4)cnc3c2)c1 [Example 1.46, 3-[3-(2-Pyrrolidin-1-yl-pyridin-4-yl)-imidazo[1,2-a]pyridin-7-yl]-benzaldehyde]
IC50 [1]: 52 nM

Molecule: c1ccc(-c2cc(-c3cn[nH]c3-c3ccccn3)ccn2)cc1 [GW6604]
side effects ([2]; during the 3 weeks treatment): no obvious side effects
death rate prevented [2, 3]: 40%
inhibition of extracellular matrix deposition [2, 3]: 60%

B1: follistatin: an antagonist of activin signalling (protein, UniProt P19883 30-344, looked up)
Follistatin: GNCWLRQAKNGRCQVLYKTELSKEECCSTGRLSTSWTEEDVNDNTLFKWMIFNGGAPNCIPCKETCENVDCGPGKKCRMNKKNKPRCVCAPDCSNITWKGPVCGLDGKTYRNECALLKARCKEQPELEVQYQGRCKKTCRDVFCPGSSTCVVDQTNNAYCVTCNRICPEPASSEQYLCGNDGVTYSSACHLRKATCLLGRSIGLAYEGKCIKAKSCEDIQCTGGKKCLWDFKVGRGRCSLCDELCPDSKSDEPVCASDNATYASECAMKEAACSSGVLLEVKHSGSCNSISEDTEEEEEDEDQDYSFPISSILEW
lung fibrosis (bleomycin-treated rats): attenuated lung fibrosis
number of macrophages and neutrophils in bronchoalveolar lavage (bleomycin-treated rats): significantly reduced

Results, then the molecule that gave them:

IC50 [1]: 108 nM
Molecule: COc1cc(-c2cnc3ccc(N[C@H]4CC[C@H](O)CC4)cn23)ccn1 [Example 2.2]

IC50 [1]: 281 nM
Molecule: CCOc1cc(-c2cnc3ccc(N[C@H]4CC[C@H](O)CC4)cn23)ccn1 [Example 2.7]

IC50 [1]: 147 nM
Molecule: c1cc(-c2cnc3ccc(-c4ccoc4)cn23)cc(-c2ccoc2)n1 [Example 2.12, 6-Furan-3-yl-3-(2-Furan-3-yl-pyridin-4-yl)-imidazo[1,2-a]pyridine]

IC50 [1]: 57 nM
Molecule: CNC(=O)c1ccc(-c2ccc3ncc(-c4ccnc(-c5ccoc5)c4)n3c2)cc1 [Example 2.18, 4-[3-(2-Furan-3-yl-pyridin-4-yl)-imidazo[1,2-a]pyridin-6-yl]-N-methyl-benzamide]

IC50 [1]: 97 nM
Molecule: CS(=O)(=O)Nc1cccc(-c2ccc3ncc(-c4ccnc(-c5ccoc5)c4)n3c2)c1 [Example 2.20, N-{3-[3-(2-Furan-3-yl-pyridin-4-yl)-imidazo[1,2-a]pyridin-6-yl]-phenyl}-methanesulfonamide]
